Laboratory results reported in patent US20070065443A1, “Fructoseamine 3 kinase and the formation of collagen and elastin” (priority 2004, published 2007).
pKi: −log10 of the molar value. “And” between values parts separate entries of the source, which are not always exact repeats. Equal values may be shown once.

Key:
[1] = Distribution of DYN-12 in plasma, urine and kidney; format: in vivo, rat; conditions: individual rats, 100 micromols i.p.
Procedure: Rats were injected intraperitoneally with 1 ml of a 100 mM solution of DYN-12 (100 micromols). Urine was collected for 1 hr, and DYN-12 levels measured. After 1 hr the animals were sacrificed and DYN-12 levels measured in both plasma and kidney tissue.

[2] = Locus of 3-O-methyl sorbitollysine uptake in vivo (tissue, urine, plasma); parameters: species or system rat
Procedure: […] Urine was collected for 3 hours, after which the rats were sacrificed. The tissues to be analyzed were removed and freeze clamped in liquid nitrogen. Perchloric acid extracts of the tissues were used for metabolite analysis. The tissues examined were taken from the brain, heart, muscle, sciatic nerve, spleen, pancreas, liver, and kidney. Plasma was also analyzed.

STZ-diabetic rats = assay: Skin elasticity measurement (vacuum pull to displace skin); format: in vivo, rat; conditions: 50 mg/kg daily s.c. for eight weeks
Procedure: Experiments were performed to determine the effects of DYN 12 on the loss of skin elasticity associated with diabetes. To this end, two groups of STZ-diabetic rats and two groups of normal rats were subjected to treatment with DYN 12 or saline. One 'group of STZ-diabetic rats (n=9) received daily subcutaneous injections of DYN 12 at 50 mg/kg for eight weeks, as did one group of normal rats (n=6). A group of control diabetic rats (n=10) and a group of normal rats (n=6) received saline instead of DYN 12. One rat was removed from the diabetic DYN 12 group after 2 weeks because its blood glucose readings were inconsistent (too low) with other diabetic rats.
A non-invasive procedure based on CyberDERM, Inc. technology utilizing a skin elasticity measurement device was used to test the effects of DYN 12 treatment on skin elasticity. The procedure provides for non-invasive measurement of skin elasticity based upon the amount of vacuum pull required to displace skin. A suction cup probe is adhered to an area of shaved skin in order to form an airtight seal. Then, a vacuum is applied to the area of the skin inside the suction cup until the skin is displaced past a sensor located inside the probe. Accordingly, the more pressure that is required to displace the skin, the less elastic the skin is.

3DG = assay: Plasma 3DG levels in diabetic and non-diabetic rats treated with 3-O-methyl sorbitollysine; format: in vivo, rat; conditions: for plasma 3DG level: 50 mg/kg body weight injections, within one week
Procedure: A cohort of twelve diabetic rats was divided into two groups of six. The first group received saline-only injections, and the second received injections of 3-O-methyl sorbitollysine (50 mg/kg body weight) in saline solution. The same procedure was conducted on a cohort of twelve non-diabetic rats.

fructoseamine kinase = molecular target: T1, fructoseamine kinase (Homo sapiens, UniProt Q9H479); assay: Fructoseamine kinase inhibition (Ki); format: biochemical
T1 sequence (Q9H479 1-309): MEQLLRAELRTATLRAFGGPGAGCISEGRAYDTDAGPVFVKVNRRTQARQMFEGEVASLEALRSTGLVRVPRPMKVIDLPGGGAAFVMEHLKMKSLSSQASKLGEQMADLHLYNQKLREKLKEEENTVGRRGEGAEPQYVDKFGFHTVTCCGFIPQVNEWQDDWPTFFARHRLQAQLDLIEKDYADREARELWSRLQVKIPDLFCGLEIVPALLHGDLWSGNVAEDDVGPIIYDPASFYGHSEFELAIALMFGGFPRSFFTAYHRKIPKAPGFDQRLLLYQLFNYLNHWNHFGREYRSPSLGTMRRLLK

COC(C(O)CNCCCCC(N)C(=O)O)C(O)C(O)CO (stereo not drawn) [DYN 12, 3-O-methylsorbitollysine]
DYN-12 concentration Kidney ([1]; 1 hr): 6.54 µmol/g and 9.19 µmol/g and 8.21 µmol/g | DYN-12 concentration Plasma ([1]; 1 hr): 0.335 µmol/mL and 0.269 µmol/mL and 0.296 µmol/mL | DYN-12 concentration Urine ([1]; urine collected 1 hr): 41.99 µmol/mL and 17.81 µmol/mL and 15.03 µmol/mL | presence of the compound in plasma ([2]; 3 hours after i.p. injection): plasma did not | tissue extracts containing the compound ([2]; brain, heart, muscle, sciatic nerve, spleen, pancreas, liver, kidney examined, 3 hours): only tissue extract found to contain 3-O-methyl sorbitollysine was that of the kidney | nmols 3OMeSL in kidneys ([2]; individual rats, 13500 nmols i.p., 3 hours, listed as 3OMeSL): 8155 nmols and 3880 nmols and 10071 nmols and 6582 nmols and 5373 nmols and 4833 nmols | nmols 3OmeSL in urine ([2]; individual rats, 13500 nmols i.p., urine collected 3 hours, listed as 3OMeSL): 4200 nmols and 1355 nmols and 2940 nmols and 1675 nmols and 1778 nmols and 2360 nmols | % 3OMeSL recovered (of injected dose, urine and kidney) ([2]; individual rats, 3 hours after i.p. injection, listed as 3OMeSL): 91.5% and 38.8% and 96.4% and 61.2% and 53.0% and 53.3% | total 3OMeSL recovered ([2]; individual rats, urine plus kidneys, 3 hours, listed as 3OMeSL): 12355 nmols and 5235 nmols and 13011 nmols and 8257 nmols and 7151 nmols and 7193 nmols | pressure needed to displace the skin (STZ-diabetic rats): 3.2+/−1.2 kPA | % Reduction of plasma 3DG vs saline only (3DG; diabetic rats): 53% | plasma 3DG level (3DG; diabetic rats): 0.44 ± 0.10 µM | % Reduction of plasma 3DG vs saline only (3DG; non-diabetic rats): 43% | plasma 3DG level (3DG; non-diabetic rats): 0.13 ± 0.02 µM | pKi (fructoseamine kinase): 2.52 to 2.70
